Results published in the supplement of paper PMC10307832.

Assays:
Assay in all cases: relative viability (nuclei count vs DMSO), 5 days (fraction); higher = more cells survive
[1] = compound: CC1=CN=C(N=C1C2=CNC(=C2)C(=O)N[C@H](CO)C3=CC(=CC=C3)Cl)NC4=C(C=C(C=C4)F)Cl [VX-11e] + CCNC(=O)c1noc(-c2cc(C(C)C)c(O)cc2O)c1-c1ccc(CN2CCOCC2)cc1 [Luminespib] (partner 0.01 µM)
Method in brief: (§1)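 A single step with final 0.05% Triton X-100, 1% formaldehyde and 1 ug/ml Hoechst fixed the cells and stained nuclei 5 days after treatment. Lung cancer cell lines in 1536-well plates had been treated by pin tool the day after seeding with one drug alone or a fixed anchor-drug dose plus five library-drug doses (not always all listed) in √10 steps, and nuclei were counted on 4× images. Relative viability is the ratio of nuclei in treated wells to nuclei in vehicle wells, taken as the median of duplicate plates.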

[2] = compound: CC1=CN=C(N=C1C2=CNC(=C2)C(=O)N[C@H](CO)C3=CC(=CC=C3)Cl)NC4=C(C=C(C=C4)F)Cl [VX-11e] + COc1cc2c(Oc3ccc(NC(=O)C4(C(=O)Nc5ccc(F)cc5)CC4)cc3F)ccnc2cc1OCCCN1CCOCC1 [Foretinib] (partner 0.25 µM)
Method in brief: as §1

[3] = compound: CC1=CN=C(N=C1C2=CNC(=C2)C(=O)N[C@H](CO)C3=CC(=CC=C3)Cl)NC4=C(C=C(C=C4)F)Cl [VX-11e] + Cc1nc(Nc2ncc(C(=O)Nc3c(C)cccc3Cl)s2)cc(N2CCN(CCO)CC2)n1 [Dasatinib] (partner 0.075 µM)
Method in brief: as §1

[4] = compound: CC1=CN=C(N=C1C2=CNC(=C2)C(=O)N[C@H](CO)C3=CC(=CC=C3)Cl)NC4=C(C=C(C=C4)F)Cl [VX-11e] + Nc1ncn([C@H]2C[C@H](O)[C@@H](CO)O2)c(=O)n1 [Decitabine] (partner 2 µM)
Method in brief: as §1

Cell Line	relative viability ([1]; first compound 0.04 µM)	relative viability ([1]; first compound 0.1265 µM)	relative viability ([1]; first compound 0.4 µM)	relative viability ([1]; first compound 1.265 µM)	relative viability ([1]; first compound 4 µM)	relative viability ([2]; first compound 0.04 µM)	relative viability ([2]; first compound 0.1265 µM)	relative viability ([2]; first compound 0.4 µM)	relative viability ([2]; first compound 1.265 µM)	relative viability ([2]; first compound 4 µM)	relative viability ([3]; first compound 0.04 µM)	relative viability ([3]; first compound 0.1265 µM)	relative viability ([3]; first compound 0.4 µM)	relative viability ([3]; first compound 1.265 µM)	relative viability ([3]; first compound 4 µM)	relative viability ([4]; first compound 0.04 µM)	relative viability ([4]; first compound 0.1265 µM)	relative viability ([4]; first compound 0.4 µM)	relative viability ([4]; first compound 1.265 µM)	relative viability ([4]; first compound 4 µM)
NCI-H1437	1.19	1.09	0.996	1.17	0.736	1.27	1.25	1.32	1.36	0.677	0.292	0.329	0.161	0.218	0.16	0.589	0.519	0.517	0.602	0.494
NCI-H1650	0.195	0.185	–	0.192	0.186	1.14	0.972	–	1.02	0.711	0.304	0.385	–	0.312	0.187	0.523	0.406	0.468	0.522	0.526
NCI-H1651	0.977	0.847	0.784	0.796	0.672	0.89	0.724	0.781	0.745	0.667	0.43	0.378	0.368	0.328	0.323	0.445	0.633	0.541	0.497	0.59
NCI-H1666	1.02	0.92	0.941	0.829	0.642	0.957	0.853	0.87	0.692	0.546	0.855	0.87	0.69	0.688	0.477	0.636	0.769	0.541	0.671	0.598
NCI-H1734	0.203	0.21	0.269	0.205	0.163	0.941	0.852	0.81	0.706	0.344	0.418	0.396	0.536	0.415	0.256	0.482	0.523	0.428	0.538	0.368
NCI-H1755	0.3	0.42	0.479	0.466	0.324	0.925	0.931	0.905	0.945	0.598	0.444	0.392	0.413	0.398	0.298	0.7	0.736	0.665	0.716	0.661
NCI-H1793	0.178	0.177	–	0.275	0.15	0.589	0.603	–	0.748	0.411	0.197	0.292	–	0.326	0.287	–	0.406	–	0.516	0.351
NCI-H1915	0.821	0.737	0.851	0.773	0.59	1.12	1.08	1.16	1.13	0.791	0.288	0.291	0.25	0.267	0.217	0.246	0.264	0.25	0.264	0.238
